Measurements from US10681909B2, “Herbicidal triazoles” (FMC Corporation, priority 2014, dated 2020).

Assays:
velvetleaf = assay: Test A postemergence; format: in vivo, Abutilon theophrasti; settings: Abutilon theophrasti, post-emergence, 240 h, 0 to 100 scale (0 no effect, 100 complete control), approx. 10 d, read-out: Plant response rating, Velvetleaf; for pest or weed control at 125 g/ha: 125 g ai/ha; for pest or weed control at 500 g/ha: 500 g ai/ha
Summary of the method: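 Test chemicals in a non-phytotoxic solvent with surfactant were applied as a directed soil spray preemergence to seeds sown in loam/sand. Postemergence sprays went to plants 2–10 cm tall at the one- to two-leaf stage. A dash means no result.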

ryegrass, Ital. = assay: Test D postemergence; format: in vivo, Lolium multiflorum; settings: scale 0 to 100
Source text: (§1) Seeds of plant species selected from bluegrass (annual bluegrass, Poa annua), blackgrass (Alopecurus myosuroides), canarygrass (Phalaris minor), chickweed (common chickweed, Stellaria media), galium (catchweed bedstraw, Galium aparine), bromegrass, down (downy bromegrass, Bromus tectorum), Russian thistle (Salsola kali), field poppy (Papaver rhoeas), field violet (Viola arvensis), foxtail, green (green foxtail, Setaria viridis), deadnettle (henbit deadnettle, Lamium amplexicaule), ryegrass, Ital. (Italian ryegrass, Lolium multiflorum), kochia (Kochia scoparia), lambsquarters (Chenopodium album), oilseed rape (Brassica napus), pigweed (Amaranthus retroflexus), chamomile (scentless chamomile, Matricaria inodora), speedwell (bird's-eye speedwell, Veronica persica), barley, spring (spring barley, Hordeum vulgare), wheat, spring (spring wheat, Triticum aestivum), buckwheat, wild (wild buckwheat, Polygonum convolvulus), wild mustard (Sinapis arvensis), oat, wild (wild oat, Avena fatua), radish, wild (wild radish, Raphanus raphanistrum), […]), barley, winter (winter barley, Hordeum vulgare), and wheat, winter (winter wheat, Triticum aestivum) were planted into a silt loam soil and treated preemergence with test chemicals formulated in a non-phytotoxic solvent mixture which included a surfactant. At the same time, these species were planted in pots containing Sunshine Redi-Earth® planting medium comprising spaghnum peat moss, vermiculite, starter nutrients and dolomitic limestone and treated with postemergence applications of the test chemicals formulated in the same manner. Plants ranged in height from 2 to 18 cm (1- to 4-leaf stage). Treated plants and controls were maintained in a controlled growth environment for 14 to 21 d after which time all species were compared to controls and visually evaluated. […] A dash (-) response means no test result.

windgrass = assay: Test D postemergence; format: in vivo, Apera spica-venti; settings: scale 0 to 100
Source text: as §1

barley, spring = assay: Test D preemergence; format: in vivo, Hordeum vulgare; settings: for Plant response rating: Barley, Spring: scale 0 to 100
Source text: as §1

barley, winter = assay: Test D preemergence; format: in vivo, Hordeum vulgare; settings: for Plant response rating: Barley, Winter: scale 0 to 100
Source text: as §1

buckwheat, wild = assay: Test D postemergence; format: in vivo, Polygonum convolvulus; settings: scale 0 to 100
Source text: as §1

wild mustard = assay: Test D preemergence; format: in vivo, Sinapis arvensis; settings: for Plant response rating: Mustard, Wild: scale 0 to 100
Source text: as §1

kochia = assay: Test D preemergence; format: in vivo, Kochia scoparia; settings: for Plant response rating: Kochia: scale 0 to 100
Source text: as §1

lambsquarters = assay: Test D postemergence; format: in vivo, Chenopodium album; settings: scale 0 to 100
Source text: as §1

[1] = 16 g ai/ha, 0 is no effect, 100 is complete control

SMILES: Cn1nc(-c2ccc(F)cc2)nc1Oc1cccc(C(F)(F)F)c1 [Compound 5, 3-(4-fluorophenyl)-1-methyl-5-[3-(trifluoromethyl)phenoxy]-1H-1,2,4-triazole]
- pest or weed control at 125 g/ha (velvetleaf): 30%
- pest or weed control at 500 g/ha (velvetleaf): 60%

SMILES: CCCn1nc(-c2ccc(F)cc2)nc1Cc1ccnc(C(F)(F)F)c1 [Compound 17, 4-[[3-(4-fluorophenyl)-1-propyl-1H-1,2,4-triazol-5-yl]methyl]-2-(trifluoromethyl)pyridine]
- pest or weed control at 125 g/ha (velvetleaf): 90%
- pest or weed control at 500 g/ha (velvetleaf): 100%

SMILES: Cn1nc(-c2ccc(F)cc2)nc1C(O)c1ccnc(C(F)(F)F)c1 (stereo not drawn) [Compound 14, α-[3-(4-fluorophenyl)-1-methyl-1H-1,2,4-triazol-5-yl]-2-(trifluoromethyl)-4-pyridinemethanol]
- pest or weed control at 125 g/ha (velvetleaf): 30%
- pest or weed control at 500 g/ha (velvetleaf): 50%

SMILES: COc1nc(-c2ccc(Cl)cc2)nn1Cc1ccnc(C(F)(F)F)c1 [Compound 28]
- Plant response rating: Ryegrass, Ital. (ryegrass, Ital.; 16 g ai/ha): 20
- Plant response rating: Ryegrass, Ital. (ryegrass, Ital.; 31 g ai/ha): 20
- Plant response rating: Ryegrass, Ital. (ryegrass, Ital.; 62 g ai/ha): 30
- Plant response rating: Ryegrass, Ital. (ryegrass, Ital.; 125 g ai/ha): 45
- Plant response rating: Windgrass (windgrass; 16 g ai/ha): 25
- Plant response rating: Windgrass (windgrass; 31 g ai/ha): 25
- Plant response rating: Windgrass (windgrass; 62 g ai/ha): 45
- Plant response rating: Windgrass (windgrass; 125 g ai/ha): 45
- Plant response rating (0 to 100), Barley, Spring (barley, spring; [1]): 15
- Plant response rating: Barley, Spring (barley, spring; 31 g ai/ha): 20
- Plant response rating: Barley, Spring (barley, spring; 62 g ai/ha): 20
- Plant response rating: Barley, Spring (barley, spring; 125 g ai/ha): 25
- Plant response rating (0 to 100), Barley, Winter (barley, winter; [1]): 10
- Plant response rating: Barley, Winter (barley, winter; 31 g ai/ha): 15
- Plant response rating: Barley, Winter (barley, winter; 62 g ai/ha): 20
- Plant response rating: Barley, Winter (barley, winter; 125 g ai/ha): 25
- Plant response rating: Buckwheat, Wild (buckwheat, wild; 16 g ai/ha): 60
- Plant response rating: Buckwheat, Wild (buckwheat, wild; 31 g ai/ha): 65
- Plant response rating: Buckwheat, Wild (buckwheat, wild; 62 g ai/ha): 75
- Plant response rating: Buckwheat, Wild (buckwheat, wild; 125 g ai/ha): 95
- Plant response rating (0 to 100), Mustard, Wild (wild mustard; [1]): 90
- Plant response rating: Mustard, Wild (wild mustard; 62 g ai/ha): 100
- Plant response rating: Mustard, Wild (wild mustard; 125 g ai/ha): 100
- Plant response rating (0 to 100), Kochia (kochia; [1]): 85
- Plant response rating: Kochia (kochia; 62 g ai/ha): 85
- Plant response rating: Kochia (kochia; 125 g ai/ha): 95
- Plant response rating: Lambsquarters (lambsquarters; 16 g ai/ha): 75
- Plant response rating: Lambsquarters (lambsquarters; 31 g ai/ha): 90
- Plant response rating: Lambsquarters (lambsquarters; 62 g ai/ha): 85
- Plant response rating: Lambsquarters (lambsquarters; 125 g ai/ha): 95

SMILES: CS(=O)(=O)c1nc(-c2ccc(F)cc2)nn1Cc1ccnc(C(F)(F)F)c1 [Compound 29, 4-[[3-(4-fluorophenyl)-5-(methylsulfonyl)-1H-1,2,4-triazole-1-yl]methyl]-2-(trifluoromethyl)pyridine]
- pest or weed control at 125 g/ha (velvetleaf): 0%
- pest or weed control at 500 g/ha (velvetleaf): 0%
